Laboratory results taken from PubChem BioAssay AID256 (DTP/NCI, 2004).
Inconclusive results and toxic doses are left out.

Tested on: CD2F1 mice, L1210 leukemia ip, survival T/C
Assay: NCI In Vivo Anticancer Drug Screen. Data for tumor model L1210 Leukemia (intraperitoneal) in CD2F1 (CDF1) mice
Settings: higher = longer survival
Procedure, shortened: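 Compound-dosed mice with transplantable tumor versus matched vehicle controls; endpoint ratio T/C reported.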

[1] = endpoint: mean survival time, dose: 100.0 mg/kg/injection, schedule: Q01DX009 (ip), vehicle: saline with Tween-80
[2] = endpoint: mean survival time, dose: 100.0 mg/kg/injection, schedule: Q04DX003 (ip), vehicle: saline with Tween-80
[3] = endpoint: mean survival time, dose: 200.0 mg/kg/injection, schedule: Q01DX009 (ip), vehicle: saline with Tween-80
[4] = endpoint: mean survival time, dose: 200.0 mg/kg/injection, schedule: Q04DX003 (ip), vehicle: saline with Tween-80
[5] = endpoint: mean survival time, dose: 400.0 mg/kg/injection, schedule: Q01DX009 (ip), vehicle: saline with Tween-80
[6] = endpoint: mean survival time, dose: 400.0 mg/kg/injection, schedule: Q04DX003 (ip), vehicle: saline with Tween-80
[7] = endpoint: mean survival time, dose: 25.0 mg/kg/injection, schedule: Q01DX009 (ip), vehicle: Klucel (hydroxypropylcellulose) (HPC)
[8] = endpoint: mean survival time, dose: 100.0 mg/kg/injection, schedule: Q01DX001 (ip), vehicle: saline with Tween-80
[9] = endpoint: mean survival time, dose: 200.0 mg/kg/injection, schedule: Q01DX001 (ip), vehicle: saline with Tween-80
[10] = endpoint: mean survival time, dose: 400.0 mg/kg/injection, schedule: Q01DX001 (ip), vehicle: saline with Tween-80

In the case of `COc1cccc2c1C(=O)c1c(O)c3c(c(O)c1C2=O)C[C@@](O)(/C(C)=N\NC=O)C[C@@H]3OC1CC(N)C(O)C(C)O1` (some centres not stated), the T/C (endpoint: mean survival time, dose: 0.65 mg/kg/injection, schedule: Q01DX009 (ip), vehicle: saline) is reported as 113 % of control, the T/C (endpoint: mean survival time, dose: 1.0 mg/kg/injection, schedule: Q01DX009 (ip), vehicle: saline) is reported as 106 % of control and the T/C (endpoint: mean survival time, dose: 1.08 mg/kg/injection, schedule: Q01DX009 (ip), vehicle: saline) is reported as 118 % of control. The T/C (endpoint: mean survival time, dose: 1.8 mg/kg/injection, schedule: Q01DX009 (ip), vehicle: saline) was 114 % of control, the T/C (endpoint: mean survival time, dose: 2.0 mg/kg/injection, schedule: Q01DX009 (ip), vehicle: saline) was 124 % of control and the T/C (endpoint: mean survival time, dose: 3.0 mg/kg/injection, schedule: Q04DX003 (ip), vehicle: saline) was 123 % of control. The T/C (endpoint: mean survival time, dose: 4.0 mg/kg/injection, schedule: Q01DX009 (ip), vehicle: saline) was 123 % of control, the T/C (endpoint: mean survival time, dose: 5.0 mg/kg/injection, schedule: Q04DX003 (ip), vehicle: saline) was 120 % of control and the T/C (endpoint: mean survival time, dose: 16.0 mg/kg/injection, schedule: Q01DX009 (ip), vehicle: saline) was 161 % of control. The T/C (endpoint: mean survival time, dose: 22.2 mg/kg/injection, schedule: Q04DX003 (ip), vehicle: saline) was 176 % of control.

In the case of `COc1ccc(CCNC(=O)/C=C\C(=O)O)cc1OC`, the T/C [1] is reported as 106 % of control, the T/C [2] is reported as 89 % of control and the T/C [3] is reported as 103 % of control. For the same compound, the T/C [4] was 103 % of control, the T/C [5] was 101 % of control and the T/C [6] was 106 % of control.

In the case of `CC(C)[Si](F)(c1ccc(Br)cc1)C(C)C`, the T/C [2] is reported as 108 % of control, the T/C [4] is reported as 106 % of control and the T/C [6] is reported as 93 % of control.

In the case of `CCN(CC)Cc1ccc([NH-])c([NH-])c1.CCN(CC)Cc1ccc([NH-])c([NH-])c1.[Cl][Pt+2][Cl].[Cl][Pt+2][Cl].[Cl][Pt+2][Cl]`, the T/C (endpoint: mean survival time, dose: 3.13 mg/kg/injection, schedule: Q04DX003 (ip), vehicle: water) is reported as 103 % of control, the T/C (endpoint: mean survival time, dose: 6.25 mg/kg/injection, schedule: Q04DX003 (ip), vehicle: water) is reported as 108 % of control and the T/C (endpoint: mean survival time, dose: 12.5 mg/kg/injection, schedule: Q04DX003 (ip), vehicle: water) is reported as 110 % of control. The T/C (endpoint: mean survival time, dose: 25.0 mg/kg/injection, schedule: Q04DX003 (ip), vehicle: water) was 119 % of control and the T/C (endpoint: mean survival time, dose: 50.0 mg/kg/injection, schedule: Q04DX003 (ip), vehicle: water) was 89 % of control.

With `COC(OC)C1C2C3C=CC(C4C(=O)OC(=O)C34)C12` (configuration not stated) the T/C [1] was 98 % of control, the T/C [2] was 97 % of control and the T/C [3] was 93 % of control. The T/C [4] was 110 % of control, the T/C [5] was 95 % of control and the T/C [6] was 103 % of control.

In the case of `C[N+](C)(C)CCS(=O)(=O)c1ccc(Cl)cc1`, the T/C (endpoint: mean survival time, dose: 25.0 mg/kg/injection, schedule: Q04DX002 (ip), vehicle: saline) is reported as 90 % of control, the T/C (endpoint: mean survival time, dose: 50.0 mg/kg/injection, schedule: Q04DX002 (ip), vehicle: saline) is reported as 94 % of control and the T/C (endpoint: mean survival time, dose: 100.0 mg/kg/injection, schedule: Q04DX002 (ip), vehicle: saline) is reported as 86 % of control.

In the case of `OCC1OC(O)C(F)C(O)C1O` (configuration not stated), the T/C (endpoint: mean survival time, dose: 50.0 mg/kg/injection, schedule: Q04DX003 (ip), vehicle: saline) is reported as 108 % of control, the T/C (endpoint: mean survival time, dose: 100.0 mg/kg/injection, schedule: Q04DX003 (ip), vehicle: saline) is reported as 104 % of control and the T/C (endpoint: mean survival time, dose: 200.0 mg/kg/injection, schedule: Q04DX003 (ip), vehicle: saline) is reported as 101 % of control. For the same compound, the T/C (endpoint: mean survival time, dose: 400.0 mg/kg/injection, schedule: Q04DX003 (ip), vehicle: saline) was 101 % of control.

With `CCOCCSc1ccccc1` the T/C (endpoint: mean survival time, dose: 100.0 mg/kg/injection, schedule: Q01DX001 (ip), vehicle: saline) was 104 % of control, the T/C (endpoint: mean survival time, dose: 200.0 mg/kg/injection, schedule: Q01DX001 (ip), vehicle: saline) was 102 % of control and the T/C (endpoint: mean survival time, dose: 400.0 mg/kg/injection, schedule: Q01DX001 (ip), vehicle: saline) was 102 % of control.

For `C1=C(CN2CCCCC2)COc2ccccc21`, the T/C (endpoint: mean survival time, dose: 37.5 mg/kg/injection, schedule: Q04DX003 (ip), vehicle: saline) was 107 % of control, the T/C (endpoint: mean survival time, dose: 75.0 mg/kg/injection, schedule: Q01DX001 (ip), vehicle: saline) was 98 % of control and the T/C (endpoint: mean survival time, dose: 75.0 mg/kg/injection, schedule: Q04DX003 (ip), vehicle: saline) was 104 % of control. The T/C (endpoint: mean survival time, dose: 150.0 mg/kg/injection, schedule: Q01DX001 (ip), vehicle: saline) was 97 % of control and the T/C (endpoint: mean survival time, dose: 150.0 mg/kg/injection, schedule: Q04DX003 (ip), vehicle: saline) was 104 % of control.

In the case of `CCCCCCCC1C(=O)OC2CC3C(C)=CC(=O)C(O)C3(C)C3C4(O)OCC23C1C(C)C4O` (configuration not stated), the T/C (endpoint: median survival time, dose: 2.5 mg/kg/injection, schedule: Q01DX005 (ip), vehicle: Klucel (hydroxypropylcellulose) (HPC)) is reported as 109 % of control, the T/C (endpoint: median survival time, dose: 5.0 mg/kg/injection, schedule: Q01DX005 (ip), vehicle: Klucel (hydroxypropylcellulose) (HPC)) is reported as 106 % of control and the T/C (endpoint: median survival time, dose: 10.0 mg/kg/injection, schedule: Q01DX005 (ip), vehicle: Klucel (hydroxypropylcellulose) (HPC)) is reported as 102 % of control. The T/C (endpoint: median survival time, dose: 20.0 mg/kg/injection, schedule: Q01DX005 (ip), vehicle: Klucel (hydroxypropylcellulose) (HPC)) was 108 % of control.

With `CC1=NN(c2ccccc2)C(=O)C1(Br)Br` the T/C (endpoint: mean survival time, dose: 25.0 mg/kg/injection, schedule: Q01DX009 (ip), vehicle: saline with Tween-80) was 96 % of control and the T/C (endpoint: mean survival time, dose: 50.0 mg/kg/injection, schedule: Q01DX009 (ip), vehicle: saline with Tween-80) was 98 % of control.

For `Nc1ccc(S(=O)(=O)c2ccc(Nc3ccccc3)c(N)c2)cc1`, the T/C (endpoint: mean survival time, dose: 100.0 mg/kg/injection, schedule: Q04DX002 (ip), vehicle: saline with Tween-80) was 97 % of control, the T/C (endpoint: mean survival time, dose: 200.0 mg/kg/injection, schedule: Q04DX002 (ip), vehicle: saline with Tween-80) was 94 % of control and the T/C (endpoint: mean survival time, dose: 400.0 mg/kg/injection, schedule: Q04DX002 (ip), vehicle: saline with Tween-80) was 97 % of control.

In the case of `COc1cccc(C2=CCCCCC2)c1OC`, the T/C [2] is reported as 98 % of control, the T/C [4] is reported as 101 % of control and the T/C [6] is reported as 102 % of control.

In the case of `CC(=O)Nc1cccc(/C=C/C=C/c2cccc([N+](=O)[O-])c2)c1`, the T/C (endpoint: mean survival time, dose: 100.0 mg/kg/injection, schedule: Q01DX001 (ip), vehicle: Klucel (hydroxypropylcellulose) (HPC)) is reported as 103 % of control, the T/C (endpoint: mean survival time, dose: 200.0 mg/kg/injection, schedule: Q01DX001 (ip), vehicle: Klucel (hydroxypropylcellulose) (HPC)) is reported as 97 % of control and the T/C (endpoint: mean survival time, dose: 400.0 mg/kg/injection, schedule: Q01DX001 (ip), vehicle: Klucel (hydroxypropylcellulose) (HPC)) is reported as 90 % of control.

In the case of `CC(=O)ON1C(=O)C=CC1=O`, the T/C [7] is reported as 95 % of control and the T/C (endpoint: mean survival time, dose: 50.0 mg/kg/injection, schedule: Q01DX009 (ip), vehicle: Klucel (hydroxypropylcellulose) (HPC)) is reported as 90 % of control.

With `CCOC(=O)Oc1c(Cl)c(Cl)c(Cl)c(Cl)c1Cl` the T/C [2] was 96 % of control, the T/C [4] was 96 % of control and the T/C [6] was 95 % of control.

`COC(=O)c1ccc(I)c([N+](=O)[O-])c1` was tested, and the T/C [8] was 98 % of control, the T/C [1] was 102 % of control and the T/C [9] was 104 % of control. For the same compound, the T/C [3] was 102 % of control, the T/C [10] was 97 % of control and the T/C [5] was 103 % of control.

In the case of `C(CC1CCNCC1)CC1CCNCC1`, the T/C (endpoint: mean survival time, dose: 25.0 mg/kg/injection, schedule: Q04DX003 (ip), vehicle: saline with Tween-80) is reported as 95 % of control and the T/C (endpoint: mean survival time, dose: 50.0 mg/kg/injection, schedule: Q04DX003 (ip), vehicle: saline with Tween-80) is reported as 87 % of control.

For `Cc1ccc(-n2c(O)c(N=Nc3ccccc3)c(=O)n(-c3ccc(C)cc3)c2=S)cc1`, the T/C [8] was 95 % of control, the T/C [9] was 100 % of control and the T/C [10] was 97 % of control.

With `OC1CCCCC1CCl` (configuration not stated) the T/C (endpoint: mean survival time, dose: 50.0 mg/kg/injection, schedule: Q01DX001 (ip), vehicle: carboxymethylcellulose (CMC)) was 103 % of control, the T/C (endpoint: mean survival time, dose: 100.0 mg/kg/injection, schedule: Q01DX001 (ip), vehicle: carboxymethylcellulose (CMC)) was 97 % of control and the T/C (endpoint: mean survival time, dose: 200.0 mg/kg/injection, schedule: Q01DX001 (ip), vehicle: carboxymethylcellulose (CMC)) was 97 % of control. The T/C (endpoint: mean survival time, dose: 400.0 mg/kg/injection, schedule: Q01DX001 (ip), vehicle: carboxymethylcellulose (CMC)) was 103 % of control.

For `CCOC(=O)C(=O)c1c(N)n(C)c(=O)n(C)c1=O`, the T/C (endpoint: mean survival time, dose: 6.25 mg/kg/injection, schedule: Q01DX009 (ip), vehicle: Klucel (hydroxypropylcellulose) (HPC)) was 112 % of control, the T/C (endpoint: mean survival time, dose: 12.5 mg/kg/injection, schedule: Q01DX009 (ip), vehicle: Klucel (hydroxypropylcellulose) (HPC)) was 87 % of control and the T/C [7] was 102 % of control.

In the case of `COc1cc(/C=C2\SC(=O)NC2=O)ccc1O`, the T/C [1] is reported as 105 % of control.

`CC(=O)NC(CSCC(=O)c1ccccc1)C(=O)O` (configuration not stated) was tested, and the T/C [2] was 98 % of control, the T/C [4] was 102 % of control and the T/C [6] was 100 % of control.
